{"source": "paper PMC2782669", "about": "(Journal of the American Chemical Society, 2009)", "key": {"[1]": {"settings": "cited from earlier work; for log β110: [FeL]^3-; for pM(Fe^III): pH 7.4, 1 μM total iron, 10 μM total ligand"}, "[2]": {"test_system": "B. subtilis HB5625 (feuA∷spc dhbA∷mls)", "test": "Disc diffusion growth promotion assay, HB5625", "assay_type": "cell-based", "settings": "in the presence of 2,2′-dipyridyl"}, "[3]": {"test_system": "B. subtilis HB5600 (dhbA∷spc)", "test": "Disc diffusion growth promotion assay, HB5600", "assay_type": "cell-based", "settings": "in the presence of 2,2′-dipyridyl"}, "esterase BesA [4]": {"test_system": "esterase BesA", "test": "BesA-catalyzed hydrolysis of apo siderophores followed by HPLC", "assay_type": "biochemical, B. cereus ATCC 14579", "settings": "72 nM enzyme, 64 μM siderophore"}, "[5]": {"test": "Strong acid hydrolysis followed by HPLC", "assay_type": "physicochemical", "settings": "1 mg/mL, 6 M HCl, stirred 12 h (overnight)"}, "esterase Fes [6]": {"test_system": "esterase Fes", "settings": "cited from earlier work"}, "[7]": {"settings": "cited from earlier work; for log K3: [LH2]^4-; for log K4: [LH3]^3-; for log K5: [LH4]^2-; for log K6: [LH5]^-; for log K2: [LH]^5-; for log K1: [L]^6-; for Σlog K1-6: sum of the stepwise protonation constants"}, "esterase Fes [8]": {"test_system": "esterase Fes", "test": "Fes-catalyzed hydrolysis of siderophores", "assay_type": "biochemical", "settings": "Fes from Shigella flexneri, 64 μM substrates, 72 nM enzymes, HPLC"}, "[9]": {"assay_type": "physicochemical"}, "[10]": {"test": "Potentiometric titration, ligand protonation constants", "assay_type": "physicochemical"}, "esterase BesA [11]": {"test_system": "esterase BesA", "test": "BesA-catalyzed hydrolysis of ferric complexes followed by UV-Vis spectroscopy", "assay_type": "biochemical, B. cereus ATCC 14579", "settings": "100 μM substrate, 1 μM enzyme, 75 mM HEPES pH 7.5, UV-Vis over 12 h"}, "B. subtilis ATCC 6051 [12]": {"test_system": "B. subtilis ATCC 6051", "test": "55Fe-siderophore transport assay", "assay_type": "cell-based", "settings": "37 °C, iron-limited medium"}, "[13]": {"molecular_target": "substrate-binding protein FeuA (Bacillus subtilis, UniProt P40409)", "sequence (P40409 21-317)": "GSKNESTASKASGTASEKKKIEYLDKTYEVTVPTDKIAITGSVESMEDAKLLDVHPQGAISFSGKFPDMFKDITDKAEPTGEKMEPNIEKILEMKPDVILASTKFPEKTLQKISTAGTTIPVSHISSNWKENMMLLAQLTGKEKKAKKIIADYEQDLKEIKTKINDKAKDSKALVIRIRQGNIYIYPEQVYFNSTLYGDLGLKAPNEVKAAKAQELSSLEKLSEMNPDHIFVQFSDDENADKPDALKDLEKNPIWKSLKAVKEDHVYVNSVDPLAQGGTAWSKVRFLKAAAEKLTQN", "test": "Fluorescence quenching binding assay with FeuA-His6", "set-up": "species or system B. subtilis 168"}, "E. coli": {"test_system": "E. coli", "settings": "incorporated through FepA; cited from earlier work"}, "B. subtilis ATCC 6051 [14]": {"test_system": "B. subtilis ATCC 6051", "settings": "cited from earlier work"}}, "note": "Entries after “also recorded” stand apart in the source; their conditions may differ. Like-named read-outs stand apart in the source and are kept apart here."}
{"smiles": "O=C(N[C@H]1COC(=O)[C@@H](NC(=O)c2cccc(O)c2O)COC(=O)[C@@H](NC(=O)c2cccc(O)c2O)COC1=O)c1cccc(O)c1O", "note": "[Ent, Enterobactin]", "values": [{"measurement": "log β110", "setting": "[1]", "result": 49}, {"measurement": "pM(Fe^III)", "setting": "[1]", "result": 34.3}, {"measurement": "growth stimulation of B. subtilis HB5625, feuA deleted (in words)", "setting": "[2]", "result": "prevented growth stimulation"}, {"measurement": "growth promotion of B. subtilis HB5600 (in words)", "setting": "[3]", "result": "promoted growth"}, {"measurement": "hydrolysis of the apo siderophore by BesA", "setting": "esterase BesA [4]", "result": "hydrolyzed sequentially"}, {"measurement": "resistance to acid hydrolysis", "setting": "[5]", "result": "completely degraded"}, {"measurement": "hydrolysis by Fes", "setting": "esterase Fes [6]", "result": "subject to enzymatic sequential hydrolysis"}, {"measurement": "log K3", "setting": "[7]", "result": 12.1}, {"measurement": "log K4", "setting": "[7]", "result": 8.6}, {"measurement": "log K5", "setting": "[7]", "result": 7.5}, {"measurement": "log K6", "setting": "[7]", "result": 6.0}, {"measurement": "log K2", "setting": "[7]", "result": 12.1}, {"measurement": "log K1", "setting": "[7]", "result": 12.1}, {"measurement": "Σlog K1-6", "setting": "[7]", "result": 58.4}]}
{"smiles": "C[C@H]1OC(=O)[C@@H](NC(=O)CNC(=O)c2cccc(O)c2O)[C@@H](C)OC(=O)[C@@H](NC(=O)CNC(=O)c2cccc(O)c2O)[C@@H](C)OC(=O)[C@H]1NC(=O)CNC(=O)c1cccc(O)c1O", "note": "[BB, bacillibactin]", "values": [{"measurement": "log β110", "setting": "[1]", "result": 47.6}, {"measurement": "pM(Fe^III)", "setting": "[1]", "result": 33.1}, {"measurement": "growth stimulation of B. subtilis HB5625, feuA deleted (in words)", "setting": "[2]", "result": "prevented growth stimulation"}, {"measurement": "growth promotion of B. subtilis HB5600 (in words)", "setting": "[3]", "result": "promoted growth"}, {"measurement": "hydrolysis of the apo siderophore by BesA", "setting": "esterase BesA [4]", "result": "hydrolyzed sequentially"}, {"measurement": "resistance to acid hydrolysis", "setting": "[5]", "result": "remained essentially intact"}, {"measurement": "hydrolysis by Fes", "setting": "esterase Fes [8]", "result": "did not react"}, {"measurement": "log K3", "setting": "[7]", "result": 12.1}, {"measurement": "log K4", "setting": "[7]", "result": 8.43}, {"measurement": "log K5", "setting": "[7]", "result": 7.43}, {"measurement": "log K6", "setting": "[7]", "result": 6.77}, {"measurement": "log K2", "setting": "[7]", "result": 12.1}, {"measurement": "log K1", "setting": "[7]", "result": 12.1}, {"measurement": "Σlog K1-6", "setting": "[7]", "result": 58.93}]}
{"smiles": "O=C(CNC(=O)c1cccc(O)c1O)N[C@H]1COC(=O)[C@@H](NC(=O)CNC(=O)c2cccc(O)c2O)COC(=O)[C@@H](NC(=O)CNC(=O)c2cccc(O)c2O)COC1=O", "note": "[SGC, SERglyCAM]", "values": [{"measurement": "growth stimulation of B. subtilis HB5625, feuA deleted (in words)", "setting": "[2]", "result": "prevented growth stimulation"}, {"measurement": "growth promotion of B. subtilis HB5600 (in words)", "setting": "[3]", "result": "promoted growth"}, {"measurement": "hydrolysis of the apo siderophore by BesA", "setting": "esterase BesA [4]", "result": "hydrolyzed sequentially"}, {"measurement": "log β110", "setting": "[9]; [FeL]^3-, competition with EDTA, 0.1 M KCl, 25 °C, pH 5 to 7.5", "result": "44.1(2)"}, {"measurement": "pM(Fe^III)", "setting": "[9]; pH 7.4, 1 μM total iron, 10 μM total ligand", "result": 29.6}, {"measurement": "log K4", "setting": "[10]; [LH3]^3-, 0.1 M KCl, 25 °C", "result": "8.37(3)"}, {"measurement": "log K5", "setting": "[10]; [LH4]^2-, 0.1 M KCl, 25 °C", "result": "7.54(2)"}, {"measurement": "log K6", "setting": "[10]; [LH5]^-, 0.1 M KCl, 25 °C", "result": "6.68(3)"}, {"measurement": "Σlog K1-6", "setting": "[10]; sum of the stepwise protonation constants", "result": 58.89}]}
{"smiles": "O=C(CNC(=O)c1cccc(O)c1O)N[C@@H]1COC(=O)[C@H](NC(=O)CNC(=O)c2cccc(O)c2O)COC(=O)[C@H](NC(=O)CNC(=O)c2cccc(O)c2O)COC1=O", "note": "[D-SGC, N,N′,N″-Tris[2,3-dihydroxybenzoyl-glycinyl]cyclotri-D-seryl trilactone]", "values": [{"measurement": "growth promotion of B. subtilis HB5600 (in words)", "setting": "[3]", "result": "no significant zone of growth stimulation"}, {"measurement": "hydrolysis of the apo siderophore by BesA", "setting": "esterase BesA [4]", "result": "no effect; also recorded: did not affect"}, {"measurement": "hydrolysis by Fes", "setting": "esterase Fes [8]", "result": "did not react"}]}
{"smiles": "O=C(CNC(=O)c1cccc([O-])c1[O-])N[C@H]1COC(=O)[C@@H](NC(=O)CNC(=O)c2cccc([O-])c2[O-])COC(=O)[C@@H](NC(=O)CNC(=O)c2cccc([O-])c2[O-])COC1=O.[Fe+3]", "note": "[[Fe^III(SGC)]^3-]", "values": [{"measurement": "reaction of the ferric complex with BesA", "setting": "esterase BesA [11]", "result": "the UV-Vis spectra changed"}, {"measurement": "iron transport into B. subtilis", "setting": "B. subtilis ATCC 6051 [12]", "result": "transported into B. subtilis at levels similar to that of [Fe^III(BB)]^3-"}, {"measurement": "Kd", "setting": "[13]", "result": 52, "unit": "nM"}]}
{"smiles": "O=C(N[C@H]1COC(=O)[C@@H](NC(=O)c2cccc([O-])c2[O-])COC(=O)[C@@H](NC(=O)c2cccc([O-])c2[O-])COC1=O)c1cccc([O-])c1[O-].[Fe+3]", "note": "[[Fe^III(Ent)]^3-]", "values": [{"measurement": "reaction of the ferric complex with BesA", "setting": "esterase BesA [11]", "result": "the UV-Vis spectra changed"}, {"measurement": "Kd", "setting": "[13]", "result": 19, "unit": "nM"}, {"measurement": "hydrolysis by Fes", "setting": "esterase Fes [6]", "result": "subject to enzymatic sequential hydrolysis"}]}
{"smiles": "O=C(N[C@@H]1COC(=O)[C@H](NC(=O)c2cccc([O-])c2[O-])COC(=O)[C@H](NC(=O)c2cccc([O-])c2[O-])COC1=O)c1cccc([O-])c1[O-].[Fe+3]", "note": "[[Fe^III(D-Ent)]^3-]", "values": [{"measurement": "reaction of the ferric complex with BesA", "setting": "esterase BesA [11]", "result": "No change in the absorption spectra"}, {"measurement": "Kd", "setting": "[13]", "result": 10, "unit": "nM"}, {"measurement": "growth promotion of E. coli", "setting": "E. coli", "result": "does not promote growth"}, {"measurement": "hydrolysis by Fes", "setting": "esterase Fes [6]", "result": "neither apo-D-Ent nor [Fe^III(D-Ent)]^3- are hydrolyzed by Fes"}]}
{"smiles": "O=C(N[C@@H]1COC(=O)[C@H](NC(=O)c2cccc(O)c2O)COC(=O)[C@H](NC(=O)c2cccc(O)c2O)COC1=O)c1cccc(O)c1O", "note": "(single isomer, unassigned; ent d) [D-Ent, D-enterobactin]", "values": [{"measurement": "transport properties in B. subtilis", "setting": "B. subtilis ATCC 6051 [14]", "result": "same transport properties as Ent"}, {"measurement": "growth promotion of B. subtilis HB5600 (in words)", "setting": "[3]", "result": "no significant zone of growth stimulation"}, {"measurement": "hydrolysis of the apo siderophore by BesA", "setting": "esterase BesA [4]", "result": "no effect; also recorded: did not affect"}, {"measurement": "hydrolysis by Fes", "setting": "esterase Fes [6]", "result": "neither apo-D-Ent nor [Fe^III(D-Ent)]^3- are hydrolyzed by Fes"}]}
{"smiles": "C[C@H]1OC(=O)[C@@H](NC(=O)CNC(=O)c2cccc([O-])c2[O-])[C@@H](C)OC(=O)[C@@H](NC(=O)CNC(=O)c2cccc([O-])c2[O-])[C@@H](C)OC(=O)[C@H]1NC(=O)CNC(=O)c1cccc([O-])c1[O-].[Fe+3]", "note": "[[Fe^III(BB)]^3-]", "values": [{"measurement": "reaction of the ferric complex with BesA", "setting": "esterase BesA [11]", "result": "the UV-Vis spectra changed"}, {"measurement": "Kd", "setting": "[13]", "result": 15, "unit": "nM"}]}
